Assay: Excipient compatibility studies (glycerol)
Type: physicochemical
Details: mixture with glycerol
Method: Various studies were carried out to determine an appropriate capsule shell formulation.

With ibuprofen lysine [ibuprofen lysinate] the “Compatibility with glycerol (colour change indicating degradation)” value was “turned brownish”.
